Converted amounts (≈) assume the structure as drawn. Read-outs that look alike come from different tables or passages of the source.
How the values were obtained:
Format in all cases: cell-based
[1] = tested on: Staphylococcus aureus NRS384 (MRSA); test: Broth microdilution MIC, S. aureus NRS384 (MRSA); set-up: MIC NRS 384 (MRSA): unit not given here; settings: for MIC: Staphylococcus aureus, read-out: MIC NRS 384 (MRSA)
Summary of the method: (§1)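 Broth microdilution in strain-specific test medium with ~5.0×10^5 cfu/ml inoculum, 1% DMSO and two-fold compound dilutions from 64 to 0.0625 μg/ml. Plates were held 20 hours at 37° C in ambient air. S. pneumoniae colonies were grown beforehand on blood agar in 5% CO2.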

[2] = tested on: Staphylococcus aureus ATCC 29213 (MSSA); test: Broth microdilution MIC, S. aureus ATCC 29213 (MSSA); settings: read-out: MIC S. aureus ATCC 29213 (MSSA)
Summary of the method: as §1

[3] = tested on: Enterococcus faecalis ATCC 29212; test: Broth microdilution MIC, E. faecalis ATCC 29212; settings: read-out: MIC E. faecalis ATCC 29212
Summary of the method: as §1

[4] = tested on: Enterococcus faecium ATCC 700221 (VRE); test: Broth microdilution MIC, E. faecium ATCC 700221 (VRE); set-up: MIC E. faecium ATCC 700221 (VRE): unit: ug/mL; settings: for MIC: Enterococcus faecium, read-out: MIC E. faecium ATCC 700221 (VRE)
Summary of the method: as §1

[5] = tested on: Streptococcus pneumoniae ATCC 49619; test: Broth microdilution MIC, S. pneumoniae ATCC 49619; settings: read-out: MIC S. pneumoniae ATCC 49619
Summary of the method: as §1

[6] = tested on: Bacillus subtilis ATCC 6633; test: Broth microdilution MIC, B. subtilis ATCC 6633; settings: read-out: MIC B. subtilis ATCC 6633
Summary of the method: as §1

[7] = tested on: Escherichia coli ATCC 25922; test: Broth microdilution MIC, E. coli ATCC 25922 (MHIIB w & w/o 4 mM EDTA); settings: for MIC: Escherichia coli, read-out: MIC E. coli ATCC 25922; for MIC E. coli ATCC 25922 + 4 mM EDTA: with 4 mM EDTA
Summary of the method: as §1

[8] = broth microdilution, 37° C., 20 hours
[9] = ATCC29212, broth microdilution, 37° C., 20 hours
[10] = ATCC49619, broth microdilution, 37° C., 20 hours
[11] = ATCC6633, broth microdilution, 37° C., 20 hours
[12] = ATCC25922, without EDTA, broth microdilution, 37° C., 20 hours

Structure (SMILES) | MIC [1, 8] [µg/mL] | MIC [2, 8] [µg/mL] | MIC [3, 9] [µg/mL] | MIC [4, 8] [µg/mL] | MIC [5, 10] [µg/mL] | MIC [6, 11] [µg/mL] | MIC [7, 12] [µg/mL] | MIC E. coli ATCC 25922 + 4 mM EDTA [7, 8] [µg/mL] | MIC ([1]; 20 h) [µg/mL] | MIC ([2]; 20 h) [µg/mL] | MIC ([3]; ATCC29212, 20 h) [µg/mL] | MIC ([4]; 20 h) [µg/mL] | MIC ([5]; ATCC49619, 20 h) [µg/mL] | MIC ([6]; ATCC6633, 20 h) [µg/mL] | MIC ([7]; ATCC25922, 20 h) [µg/mL] | MIC NRS 384 (MRSA) [1, 8] | MIC E. faecium ATCC 700221 (VRE) [4, 8]
Cl.O=C([C@@H]1C[C@@H](O)CN1)N1CCC(n2ncc3nc(NCc4ccc(Cl)c(Cl)c4)[nH]c(=O)c32)CC1 [Compound 274, 5-((3,4-dichlorobenzyl)amino)-1-(1-((2S,4R)-4-hydroxypyrrolidine-2-carbonyl)piperidin-4-yl)-1H-pyrazolo[4,3-d]pyrimidin-7(6H)-one hydrochloride] | 64 | 32 | 64 | 16 | 16 | 16 | > 64 | >64 |  |  |  |  |  |  |  |  | 
CC(C)(C)OC(=O)N1C[C@H](O)C[C@H]1C(=O)N1CCC(n2ncc3nc(NCc4ccc(Cl)c(Cl)c4)[nH]c(=O)c32)CC1 [Compound 275, (2S,4R)-tert-Butyl 2-(4-(5-((3,4-dichlorobenzyl)amino)-7-oxo-6,7-dihydro-1H-pyrazolo[4,3-d]pyrimidin-1-yl)piperidine-1-carbonyl)-4-hydroxypyrrolidine-1-carboxylate] |  |  |  |  |  |  |  | >64 | 32 (≈ 52.8 µM) | 32 (≈ 52.8 µM) | 16 (≈ 26.4 µM) | 8 (≈ 13.2 µM) | 8 (≈ 13.2 µM) | 8 (≈ 13.2 µM) | > 64 |  | 
CN(C)CC(O)C(O)C(=O)N1CCC(n2ncc3nc(NCc4ccc(Cl)c(Cl)c4)[nH]c(=O)c32)CC1.Cl (centres unmarked) [Compound 277, 5-((3,4-dichlorobenzyl)amino)-1-(1-(4-(dimethylamino)-2,3-dihydroxybutanoyl)piperidin-4-yl)-1H-pyrazolo[4,3-d]pyrimidin-7(6H)-one hydrochloride] | 64 | > 64 | 64 | 32 | 16 | 16 | > 64 | >64 |  |  |  |  |  |  |  |  | 
Cl.O=C([C@@H]1C[C@H](O)CN1)N1CCC(n2ncc3nc(NCc4ccc(Cl)c(Cl)c4)[nH]c(=O)c32)CC1 [Compound 278, 5-((3,4-dichlorobenzyl)amino)-1-(1-((2S,4S)-4-hydroxypyrrolidine-2-carbonyl)piperidin-4-yl)-1H-pyrazolo[4,3-d]pyrimidin-7(6H)-one hydrochloride] | > 64 | > 64 | > 64 | 64 | 32 | 32 | > 64 | >64 |  |  |  |  |  |  |  |  | 
CN(C)C(CO)C(=O)N1CCC(n2ncc3nc(NCc4ccc(Cl)c(Cl)c4)[nH]c(=O)c32)CC1.Cl (centres unmarked) [Compound 279, 5-((3,4-dichlorobenzyl)amino)-1-(1-(2-(dimethylamino)-3-hydroxypropanoyl)piperidin-4-yl)-1H-pyrazolo[4,3-d]pyrimidin-7(6H)-one hydrochloride] | 32 | 32 | 16 | 16 | 4 | 4 | > 64 | >64 |  |  |  |  |  |  |  |  | 
Cl.O=C(c1cccnc1)N1CCCC(Cn2ncc3nc(NCc4ccc(Cl)c(Cl)c4)[nH]c(=O)c32)C1 (centres unmarked) [Compound 280, 5-((3,4-dichlorobenzyl)amino)-1-((1-nicotinoylpiperidin-3-yl)methyl)-1H-pyrazolo[4,3-d]pyrimidin-7(6H)-one hydrochloride] | 16 | 16 | 16 | 8 | 8 | 16 | > 64 | >64 |  |  |  |  |  |  |  |  | 
CC(=O)N1CCC(Cn2ncc3nc(NCc4ccc(Cl)c(Cl)c4)[nH]c(=O)c32)C1 (centres unmarked) [Compound 281, 1-((1-Acetylpyrrolidin-3-yl)methyl)-5-((3,4-dichlorobenzyl)amino)-1H-pyrazolo[4,3-d]pyrimidin-7(6H)-one] |  | 8 (≈ 18.4 µM) | 4 (≈ 9.19 µM) | 2 (≈ 4.59 µM) | 2 (≈ 4.59 µM) | 2 (≈ 4.59 µM) | > 64 | >64 |  |  |  |  |  |  |  | 4/8 | 
Cl.O=c1[nH]c(NCc2ccc(Cl)c(Cl)c2)nc2cnn(CCOCc3nn[nH]n3)c12 [Compound 282, 1-(2-((2H-tetrazol-5-yl)methoxy)ethyl)-5-((3,4-dichlorobenzyl)amino)-1H-pyrazolo[4,3-d]pyrimidin-7(6H)-one hydrochloride] | > 64 | > 64 | > 64 | > 64 | > 64 | > 64 | > 64 | >64 |  |  |  |  |  |  |  |  | 
O=C(O)COCCn1ncc2nc(NCc3ccc(Cl)c(Cl)c3)[nH]c(=O)c21 [Compound 283, 2-[2-[5-[(3,4-dichlorophenyl)methylamino]-7-oxo-6H-pyrazolo[4,3-d]pyrimidin-1-yl]ethoxy]acetic acid] | > 64 | > 64 | > 64 | > 64 | > 64 | > 64 | > 64 | >64 |  |  |  |  |  |  |  |  | 
NC(=O)COCCn1ncc2nc(NCc3ccc(Cl)c(Cl)c3)[nH]c(=O)c21 [Compound 284, 2-[2-[5-[(3,4-dichlorophenyl)methylamino]-7-oxo-6H-pyrazolo[4,3-d]pyrimidin-1-yl]ethoxy]acetamide] | 64 (≈ 156 µM) | 16 (≈ 38.9 µM) | 16 (≈ 38.9 µM) | 8 (≈ 19.5 µM) | 8 (≈ 19.5 µM) | 8 (≈ 19.5 µM) | > 64 | >64 |  |  |  |  |  |  |  |  | 
N#CCOCCn1ncc2nc(NCc3ccc(Cl)c(Cl)c3)[nH]c(=O)c21 [Compound 285, 2-(2-(5-((3,4-dichlorobenzyl)amino)-7-oxo-6,7-dihydro-1H-pyrazolo[4,3-d]pyrimidin-1-yl)ethoxy)acetonitrile] |  | 4 (≈ 10.2 µM) | 4 (≈ 10.2 µM) |  | 4 (≈ 10.2 µM) | 1 (≈ 2.54 µM) | > 64 | >64 |  |  |  |  |  |  |  | 4/4 | 2/2
[2H]C([2H])(O)COCCn1ncc2nc(NCc3ccc(Cl)c(Cl)c3)[nH]c(=O)c21 [Compound 286, 5-[(3,4-dichlorophenyl)methylamino]-1-[2-(2,2-dideuterio-2-hydroxyl-ethoxy)ethyl]-6H-pyrazolo[4,3-d]pyrimidin-7-one] | 8 (≈ 20 µM) | 8 (≈ 20 µM) | 4 (≈ 9.99 µM) | 2 (≈ 5 µM) | 4 (≈ 9.99 µM) | 4 (≈ 9.99 µM) | > 64 | >64 |  |  |  |  |  |  |  |  | 
COC(=O)COCCn1ncc2nc(NCc3ccc(Cl)c(Cl)c3)[nH]c(=O)c21 [Compound 287, methyl 2-(2-(5-((3,4-dichlorobenzyl)amino)-7-oxo-6,7-dihydro-1H-pyrazolo[4,3-d]pyrimidin-1-yl)ethoxy)acetate] |  | 4 (≈ 9.38 µM) | 8 (≈ 18.8 µM) |  | 16 (≈ 37.5 µM) | 2 (≈ 4.69 µM) | > 64 | >64 |  |  |  |  |  |  |  | 4/4 | 4/4

Reference: US10723741B1, “DNA polymerase IIIC inhibitors and use thereof” (Acurx Pharmaceuticals, LLC, priority 2018, dated 2020)
